From patent publication US20240118280A1 (priority 2022, published 2024)
“Also recorded” adds a separate entry of the source.

Target: T1, human EGFR kinase (Homo sapiens, UniProt P00533)
T1 construct: The EGFR kinase domain is incubated with Ibrutinib-yne or a DMSO control at 37° C. for 1 hour; made in house
Experiment: Activity-based protein fingerprinting: covalent labelling of EGFR kinase by chemical probe (PAGE, fluorescent imaging, LC-MS)
Format: binding
Description: The EGFR kinase domain is incubated with Ibrutinib-yne or a DMSO control at 37° C. for 1 hour. The EGFR kinase domain bound to Ibrutinib-yne is exposed to cysteine reduction and capping using TCEP and chloroacetamide at 37° C. for 1 hour. The product is desalted with a 7 kDa zeba column and exposed to proteolytic digestion by trypsin at 37° C. for 16 hours. The product is further conjugated with bis-biotin-DNA-SS-azide at room temperature for 30 minutes and finally exposed to DTT at 65° C. for 10 minutes.
FIGS. 5A-5C show LC-MS plots of DMSO control (FIG. 5A), Ibrutinib-yne (FIG. 5B), and Ibrutinib-yne with a DNA control molecule and DTT (FIG. 5C). The blue box represents unmodified peptide, the green box represents peptide bound to Ibrutinib-yne, and the red box represents peptide-Ibrutinib-yne-DNA adduct following disulfide reduction.
Using the steps of Example 1, EGFR kinase was detected using activity-based protein fingerprinting. The commercially available drug analog Ibrutinib-yne, which binds to the catalytic cysteine of EGFR comprises an electrophilic warhead and an alkyne moiety for the CLICK handle processing step. Purified human EGFR kinase was generated (FIG. 2A) and exposed to Ibrutinib-yne (FIG. 2B). […] The target peptide detected by this protocol LLGIC(Alk)[…]) (SEQ ID NO:1) was detected by LC-MS (FIGS. 5A-5C).

## Ibrutinib-yne
After TCEP/chloroacetamide capping and trypsin digestion, vs DMSO control
  LC-MS detection of target peptide LLGIC(Alk)[…] (SEQ ID NO:1): detected only in its modified state
Probe or DMSO control incubated with EGFR at 37° C. for 1 hour, PAGE
  probe-EGFR kinase complex observed by Coomassie Blue staining and fluorescent imaging (AF647-azide): desired complex was observed; also recorded: only the protein bearing Ibrutinib-yne reacted with AF647-azide
